# ± gives the expanded uncertainty stated by the source.
# Assay: molar heat capacity at constant pressure
# Settings: Liquid, Flow calorimetry
structure (smiles),measurement,setting,value
CCCCCCCCC(=O)OCC [ethyl nonanoate],molar heat capacity at constant pressure,"303.21 K, 15150 kPa",369 ± 12 J/K/mol
same,molar heat capacity at constant pressure,"303.22 K, 9980 kPa",370 ± 12 J/K/mol
same,molar heat capacity at constant pressure,"303.24 K, 20090 kPa",369 ± 12 J/K/mol
same,molar heat capacity at constant pressure,"303.25 K, 5000 kPa",371 ± 12 J/K/mol
same,molar heat capacity at constant pressure,"303.27 K, 24930 kPa",368 ± 12 J/K/mol
same,molar heat capacity at constant pressure,"303.31 K, 110 kPa",371 ± 12 J/K/mol
same,molar heat capacity at constant pressure,"313.21 K, 19900 kPa",375 ± 12 J/K/mol
same,molar heat capacity at constant pressure,"313.22 K, 14910 kPa",376 ± 12 J/K/mol
same,molar heat capacity at constant pressure,"313.23 K, 170 kPa",377 ± 12 J/K/mol
same,molar heat capacity at constant pressure,"313.24 K, 9850 kPa",376 ± 12 J/K/mol
same,molar heat capacity at constant pressure,"313.24 K, 24930 kPa",374 ± 12 J/K/mol
same,molar heat capacity at constant pressure,"313.26 K, 5090 kPa",377 ± 12 J/K/mol
same,molar heat capacity at constant pressure,"323.19 K, 4970 kPa",385 ± 12 J/K/mol
same,molar heat capacity at constant pressure,"323.22 K, 110 kPa",386 ± 12 J/K/mol
same,molar heat capacity at constant pressure,"323.22 K, 24920 kPa",382 ± 12 J/K/mol
same,molar heat capacity at constant pressure,"323.23 K, 10020 kPa",384 ± 12 J/K/mol
same,molar heat capacity at constant pressure,"323.24 K, 20090 kPa",382 ± 12 J/K/mol
same,molar heat capacity at constant pressure,"323.26 K, 15190 kPa",383 ± 12 J/K/mol
same,molar heat capacity at constant pressure,"333.16 K, 4930 kPa",393 ± 13 J/K/mol
same,molar heat capacity at constant pressure,"333.18 K, 140 kPa",394 ± 13 J/K/mol
same,molar heat capacity at constant pressure,"333.18 K, 9950 kPa",393 ± 13 J/K/mol
same,molar heat capacity at constant pressure,"333.19 K, 20150 kPa",392 ± 13 J/K/mol
same,molar heat capacity at constant pressure,"333.21 K, 15110 kPa",393 ± 13 J/K/mol
same,molar heat capacity at constant pressure,"333.23 K, 25020 kPa",392 ± 13 J/K/mol
same,molar heat capacity at constant pressure,"343.19 K, 5070 kPa",400 ± 13 J/K/mol
same,molar heat capacity at constant pressure,"343.19 K, 9940 kPa",400 ± 13 J/K/mol
same,molar heat capacity at constant pressure,"343.19 K, 14950 kPa",400 ± 13 J/K/mol
same,molar heat capacity at constant pressure,"343.2 K, 110 kPa",401 ± 13 J/K/mol
same,molar heat capacity at constant pressure,"343.21 K, 19870 kPa",399 ± 13 J/K/mol
same,molar heat capacity at constant pressure,"343.22 K, 25210 kPa",399 ± 13 J/K/mol
same,molar heat capacity at constant pressure,"353.11 K, 4910 kPa",407 ± 13 J/K/mol
same,molar heat capacity at constant pressure,"353.14 K, 160 kPa",407 ± 13 J/K/mol
same,molar heat capacity at constant pressure,"353.14 K, 10160 kPa",406 ± 13 J/K/mol
same,molar heat capacity at constant pressure,"353.15 K, 14930 kPa",406 ± 13 J/K/mol
same,molar heat capacity at constant pressure,"353.2 K, 20210 kPa",405 ± 13 J/K/mol
same,molar heat capacity at constant pressure,"353.23 K, 25190 kPa",405 ± 13 J/K/mol
same,molar heat capacity at constant pressure,"363.12 K, 110 kPa",414 ± 13 J/K/mol
same,molar heat capacity at constant pressure,"363.14 K, 5090 kPa",413 ± 13 J/K/mol
same,molar heat capacity at constant pressure,"363.16 K, 15060 kPa",412 ± 13 J/K/mol
same,molar heat capacity at constant pressure,"363.17 K, 10020 kPa",413 ± 13 J/K/mol
same,molar heat capacity at constant pressure,"363.17 K, 20130 kPa",411 ± 13 J/K/mol
same,molar heat capacity at constant pressure,"363.19 K, 25160 kPa",410 ± 13 J/K/mol
same,molar heat capacity at constant pressure,"373.12 K, 100 kPa",420 ± 13 J/K/mol
same,molar heat capacity at constant pressure,"373.12 K, 4830 kPa",420 ± 13 J/K/mol
same,molar heat capacity at constant pressure,"373.13 K, 10020 kPa",419 ± 13 J/K/mol
same,molar heat capacity at constant pressure,"373.13 K, 15150 kPa",418 ± 13 J/K/mol
same,molar heat capacity at constant pressure,"373.14 K, 20170 kPa",418 ± 13 J/K/mol
same,molar heat capacity at constant pressure,"373.14 K, 24950 kPa",417 ± 13 J/K/mol
same,molar heat capacity at constant pressure,"383.18 K, 160 kPa",427 ± 14 J/K/mol
same,molar heat capacity at constant pressure,"383.2 K, 4950 kPa",426 ± 14 J/K/mol
same,molar heat capacity at constant pressure,"383.2 K, 10190 kPa",425 ± 14 J/K/mol
same,molar heat capacity at constant pressure,"383.2 K, 15000 kPa",425 ± 14 J/K/mol
same,molar heat capacity at constant pressure,"383.22 K, 20130 kPa",424 ± 14 J/K/mol
same,molar heat capacity at constant pressure,"383.22 K, 24950 kPa",424 ± 14 J/K/mol
same,molar heat capacity at constant pressure,"393.18 K, 110 kPa",434 ± 14 J/K/mol
same,molar heat capacity at constant pressure,"393.18 K, 5090 kPa",433 ± 14 J/K/mol
same,molar heat capacity at constant pressure,"393.18 K, 10020 kPa",433 ± 14 J/K/mol
same,molar heat capacity at constant pressure,"393.19 K, 15150 kPa",433 ± 14 J/K/mol
same,molar heat capacity at constant pressure,"393.2 K, 20190 kPa",432 ± 14 J/K/mol
same,molar heat capacity at constant pressure,"393.24 K, 24960 kPa",432 ± 14 J/K/mol
CCCCCCCCCCCC(=O)OCC [ethyl dodecanoate],molar heat capacity at constant pressure,"313.26 K, 5030 kPa",472 ± 14 J/K/mol
same,molar heat capacity at constant pressure,"313.26 K, 9990 kPa",471 ± 14 J/K/mol
same,molar heat capacity at constant pressure,"313.27 K, 140 kPa",474 ± 14 J/K/mol
same,molar heat capacity at constant pressure,"313.27 K, 14970 kPa",470 ± 14 J/K/mol
same,molar heat capacity at constant pressure,"313.28 K, 25150 kPa",469 ± 14 J/K/mol
same,molar heat capacity at constant pressure,"313.29 K, 20040 kPa",470 ± 14 J/K/mol
same,molar heat capacity at constant pressure,"323.22 K, 160 kPa",480 ± 14 J/K/mol
same,molar heat capacity at constant pressure,"323.22 K, 20140 kPa",475 ± 14 J/K/mol
same,molar heat capacity at constant pressure,"323.22 K, 25150 kPa",474 ± 14 J/K/mol
same,molar heat capacity at constant pressure,"323.23 K, 4980 kPa",478 ± 14 J/K/mol
same,molar heat capacity at constant pressure,"323.23 K, 10110 kPa",477 ± 14 J/K/mol
same,molar heat capacity at constant pressure,"323.23 K, 14920 kPa",476 ± 14 J/K/mol
same,molar heat capacity at constant pressure,"333.2 K, 140 kPa",487 ± 15 J/K/mol
same,molar heat capacity at constant pressure,"333.2 K, 4920 kPa",485 ± 15 J/K/mol
same,molar heat capacity at constant pressure,"333.2 K, 10150 kPa",483 ± 15 J/K/mol
same,molar heat capacity at constant pressure,"333.2 K, 15060 kPa",482 ± 14 J/K/mol
same,molar heat capacity at constant pressure,"333.2 K, 19970 kPa",481 ± 14 J/K/mol
same,molar heat capacity at constant pressure,"333.21 K, 25020 kPa",480 ± 14 J/K/mol
same,molar heat capacity at constant pressure,"343.15 K, 140 kPa",493 ± 15 J/K/mol
same,molar heat capacity at constant pressure,"343.16 K, 5160 kPa",491 ± 15 J/K/mol
same,molar heat capacity at constant pressure,"343.16 K, 10270 kPa",489 ± 15 J/K/mol
same,molar heat capacity at constant pressure,"343.19 K, 15130 kPa",488 ± 15 J/K/mol
same,molar heat capacity at constant pressure,"343.19 K, 20220 kPa",487 ± 15 J/K/mol
same,molar heat capacity at constant pressure,"343.21 K, 25180 kPa",486 ± 15 J/K/mol
same,molar heat capacity at constant pressure,"353.14 K, 180 kPa",501 ± 15 J/K/mol
same,molar heat capacity at constant pressure,"353.14 K, 4970 kPa",498 ± 15 J/K/mol
same,molar heat capacity at constant pressure,"353.17 K, 9950 kPa",496 ± 15 J/K/mol
same,molar heat capacity at constant pressure,"353.17 K, 14920 kPa",494 ± 15 J/K/mol
same,molar heat capacity at constant pressure,"353.17 K, 20020 kPa",492 ± 15 J/K/mol
same,molar heat capacity at constant pressure,"353.18 K, 24950 kPa",491 ± 15 J/K/mol
same,molar heat capacity at constant pressure,"363.17 K, 110 kPa",508 ± 15 J/K/mol
same,molar heat capacity at constant pressure,"363.18 K, 5010 kPa",507 ± 15 J/K/mol
same,molar heat capacity at constant pressure,"363.29 K, 10190 kPa",505 ± 15 J/K/mol
same,molar heat capacity at constant pressure,"363.29 K, 15070 kPa",503 ± 15 J/K/mol
same,molar heat capacity at constant pressure,"363.29 K, 20150 kPa",501 ± 15 J/K/mol
same,molar heat capacity at constant pressure,"363.29 K, 25100 kPa",500 ± 15 J/K/mol
same,molar heat capacity at constant pressure,"373.19 K, 110 kPa",516 ± 16 J/K/mol
same,molar heat capacity at constant pressure,"373.2 K, 4900 kPa",514 ± 15 J/K/mol
same,molar heat capacity at constant pressure,"373.21 K, 10170 kPa",512 ± 15 J/K/mol
same,molar heat capacity at constant pressure,"373.21 K, 15020 kPa",511 ± 15 J/K/mol
same,molar heat capacity at constant pressure,"373.22 K, 19850 kPa",509 ± 15 J/K/mol
same,molar heat capacity at constant pressure,"373.25 K, 24930 kPa",508 ± 15 J/K/mol
same,molar heat capacity at constant pressure,"383.23 K, 100 kPa",523 ± 16 J/K/mol
same,molar heat capacity at constant pressure,"383.23 K, 5000 kPa",521 ± 16 J/K/mol
same,molar heat capacity at constant pressure,"383.23 K, 10040 kPa",520 ± 16 J/K/mol
same,molar heat capacity at constant pressure,"383.24 K, 15080 kPa",518 ± 16 J/K/mol
same,molar heat capacity at constant pressure,"383.25 K, 19940 kPa",517 ± 16 J/K/mol
same,molar heat capacity at constant pressure,"383.28 K, 25150 kPa",515 ± 15 J/K/mol
same,molar heat capacity at constant pressure,"393.2 K, 4910 kPa",530 ± 16 J/K/mol
same,molar heat capacity at constant pressure,"393.22 K, 110 kPa",532 ± 16 J/K/mol
same,molar heat capacity at constant pressure,"393.22 K, 10100 kPa",530 ± 16 J/K/mol
same,molar heat capacity at constant pressure,"393.23 K, 19780 kPa",528 ± 16 J/K/mol
same,molar heat capacity at constant pressure,"393.27 K, 15020 kPa",529 ± 16 J/K/mol
same,molar heat capacity at constant pressure,"393.27 K, 24830 kPa",527 ± 16 J/K/mol
